35 molecules from PubChem BioAssay AID743417 (Broad Institute, 2014) can be followed below.

Inconclusive results are not listed.

The experiment has as its system Clone20 osteoblast Shn3 3'UTR firefly luciferase, 24 h. In words: Schnurri-3 3'UTR-luciferase signal suppressors – cell-based, Clone20 osteoblasts, luminescence, dry powder, set 2, dose response (AID 743417).
Regarding `CCN(CC)CCN1C(=O)/C(=C\c2ccc(Cl)c([N+](=O)[O-])c2)SC1=Nc1ccc(OC)cc1`, the AC50 (as a rule, the concentration at which the activity in the assay is half-maximal) was 2110 nM.

Consider `Cn1c(=O)c2c(nc(NCc3ccco3)n2C/C=C/c2ccccc2)n(C)c1=O`, for which the AC50 is 1080 nM.

With `COc1ccc(C(C(=O)NC2CCCCC2)N(C(=O)CCl)c2ccc(OC)cc2)cc1` (stereo not given), the AC50 was 5560 nM.

For the molecule `OC[C@@H]1CN(Cc2ccncc2)C[C@H](n2cnc3c(N4CCN(c5ccccc5)CC4)ncnc32)O1`, the half-maximal activity concentration (AC50) is 2380 nM.

Turning to `O=[N+]([O-])c1ccc2ncnc(N3CCN(Cc4ccc5c(c4)OCO5)CC3)c2c1`, the AC50 was 2730 nM.

For `COC(=O)C12OCC34C(CC5C(C)=C(O)C(=O)CC5(C)C3C(O)C1O)OC(=O)C(OC(=O)/C=C(\C)C(C)C)C24` (stereo not given), the half-maximal activity concentration (AC50) is below 260 nM.

In the case of `Cc1cccc(N2C(=O)NC(=O)/C(=C\C=C\c3ccco3)C2=O)c1`, the AC50 is 3060 nM.

As to `COc1cc(N2C(=O)C=CC2=O)ccc1N1C(=O)C=CC1=O`, the AC50 was 2320 nM.

For `Cc1ccc(C)c(S(=O)(=O)N2CCN(C(=O)C3CCN(c4ncnc5sc(C)c(C)c45)CC3)CC2)c1`, the AC50 is 2820 nM.

Consider `CCOc1cc(CNCCc2ccc(S(N)(=O)=O)cc2)ccc1OCc1ccc(Cl)cc1`, for which the AC50 is 3870 nM.

Regarding `Cn1c(SCc2cccc(Br)c2)nc2ccccc2c1=O`, the AC50 was 7680 nM.

Turning to `COCCN(C(=O)COC(=O)C1CCC(C(C)(C)C)CC1)c1c(N)n(Cc2ccccc2)c(=O)[nH]c1=O` (stereo not given), the AC50 was 5150 nM.

With `O=C1OC[C@H](Cc2ccc3c(c2)OCO3)/C1=C\c1ccc2c(c1)OCO2`, the AC50 is 2660 nM.

In the case of `CN(c1ccccc1)S(=O)(=O)c1ccc(NC(=O)c2nc(S(C)(=O)=O)ncc2Cl)cc1`, the half-maximal activity concentration (AC50) was 502 nM.

For `Cc1oc(=O)c(NC(=O)c2ccc(Cl)cc2)cc1C(=O)c1ccccc1`, the AC50 was 32100 nM.

As for `CN1/C(=C/C(=O)c2nc(S(C)(=O)=O)ncc2Cl)C(C)(C)c2ccccc21`, the AC50 is 5210 nM.

For `C=C(C)[C@@H]1C2=CC(C(=O)OC)=C(C[C@H](C(=C)C)[C@H]3O[C@H]3C3=C[C@H]1OC3=O)O2`, the AC50 was 8160 nM.

For the molecule `COc1ccccc1Cc1c(-c2ccco2)nc2c(C)cc(Br)cn12`, the AC50 is 1900 nM.

Turning to `COc1ccc(NS(=O)(=O)c2ccc(C(=O)N3CCCCCC3)cc2)cc1`, the half-maximal activity concentration (AC50) was 4510 nM.

`COc1ccc(CCNc2cc(N3CCN(C(=O)c4ccccc4F)CC3)ccc2[N+](=O)[O-])cc1OC`: the AC50 was 1260 nM.

Regarding `Cc1cc(C)nc(SCC(=O)Nc2ccc(N3CCOCC3)c(Cl)c2)n1`, the AC50 is 1660 nM.

With `Cc1ccc(Oc2c(C(N)=O)cc([N+](=O)[O-])cc2[N+](=O)[O-])cc1`, the half-maximal activity concentration (AC50) was 11900 nM.

Turning to `CC(CNC(=O)c1cc(COc2ccc3ncccc3c2)on1)c1ccccc1` (stereo not given), the half-maximal activity concentration (AC50) was 3730 nM.

Take `O=C(/C=C/c1ccc(F)cc1)NC(=S)NNC(=O)c1cnccn1`: the AC50 is 1390 nM.

Consider `COc1cc2cc(C(=O)N3CC(COS(C)(=O)=O)c4ccc(O)cc43)[nH]c2c(OC)c1OC` (stereo not given), for which the AC50 is below 260 nM.

With `Cc1ccn2c(Nc3ccccc3)c(-c3ccccn3)nc2c1`, the AC50 was 2310 nM.

On to `COC(=O)/C(=C1/Oc2cc(C)oc(=O)c2S1)C(F)(F)F`, for which the AC50 is 4640 nM.

On to `CC(=O)c1cccc(NS(=O)(=O)c2ccc(-c3cnc(C4CC4)o3)cc2)c1`, for which the AC50 is 5000 nM.

On to `CCCCN1C2=NCCCN2c2cc(C)c(C)cc21`, for which the AC50 is 803 nM.

Regarding `CC(=O)c1c(C)[nH]c(C(=O)COc2cc(C)ccc2C(C)C)c1C`, the AC50 was 1250 nM.

With `O=c1c2ccccc2nc(/C=C/c2ccc([N+](=O)[O-])o2)n1-c1ccc(O)cc1`, the AC50 is 3240 nM.

Take `CC(C)c1nc(SCC(=O)Nc2cccc(C(F)(F)F)c2)c2c(=O)n(C)c(=O)n(C)c2n1`: the AC50 is 2700 nM.

`CCOc1ccc(OCc2cccc(C(=O)O)c2)cc1`: the AC50 was 649 nM.

Take `COc1cc(NC(=O)COc2cccc3c2OC(C)(C)C3)cc(OC)c1OC`: the AC50 is 4380 nM.

Turning to `C=C[C@]1(C)C=C2C(=O)[C@@]3(O)OC(=O)[C@@]4(CCCC(C)(C)[C@H]34)[C@@]2(O)CC1`, the AC50 is 4980 nM.
